Legend:
H520 cells [1] = experiment: H520 lung squamous cell carcinoma xenograft, repeat experiment; type: in vivo, nude-BALB/c mice; settings: compared to control, FIGS. 13A, 13B
Experimental: (§1) Male nude-BALB/c mice at six-weeks of age were obtained from National Laboratory Animal Breeding and Research Center, Taipei, Taiwan. Mice were housed in each cage and provided them with sterile food and water. The mice were maintained under a constant temperature (22±2° C.) and relative humidity (55±5%), with a 12:12 h light: dark cycle. The Institutional Animal Care and Use Committee (IACUC) at the National […] University (IACUC Approval No. 110003) reviewed and approved the study protocol, in which procedures were in accordance with the Guidelines for the Care and Use of Laboratory Animals published by the Taiwanese Ministry of Health and Welfare. Human non-small cell lung carcinoma cell line (H520) was purchased from ATCC Cell Bank. H520 cells were incubated in RPMI 1640 medium (cat no. 61870044; Gibco; Thermo Fisher, Inc) supplemented with 10% fetal bovine serum in an environmental containing 5% CO2 at 37° C. The experimental treatments were commenced after the implanted H520 cells had formed a detectable tumor mass, which was assessed on day 7 after implantation. […] The growth of the tumors was assessed every seven days by measuring their largest and smallest diameters, and calculated their volume according to the following formula: […] […]

H520 cells [2] = experiment: H520 lung squamous cell carcinoma xenograft, first experiment; type: in vivo, nude-BALB/c mice
Experimental: as §1

Ki67 = experiment: IHC analysis of Ki67 in M5 tumors; type: in vivo, BALB/c nude mice; settings: FIGS. 9A and 9B
A549 cells = experiment: A549 lung adenocarcinoma xenograft; type: in vivo, BALB/c nude mice
Experimental: A549 cell line was purchased from ATCC Cell Bank and was cultured in F-12K medium (cat no. ATCC 30-2004) plus 10% fetal bovine serum, at 37° C., 5% CO2. For experiments, cells were grown to 90% confluence. The experimental treatments were commenced after the implanted A549 cells had formed a detectable tumor mass, which was assessed on day 7 after implantation. Briefly, the mice were anesthetized via intraperitoneal injection of Zoletil (Virbac Taiwan, Taipei, Taiwan), and then subcutaneously injected 100 μl of cell suspension containing 6*10^6 viable A549 cells into right posterior leg. […] All treatments were administered via intraperitoneal injection (IP) or intratumoral injection (IT). The control group (Group 1) received normal saline daily, while the other three treatment groups received their corresponding treatments B.I.W (twice a week) or Q.W (once weekly). The PTS100 group (Group 2) received 330 mg/kg of PTS100 (Gongwin Biopharm Holding, Taipei, Taiwan). The normal saline+pemetrexed+Cisplatin group (Group 3) received 100 mg/kg of pemetrexed and 2 mg/kg of cisplatin. The pemetrexed+cisplatin+PTS100 (Group 4, also known as the “combination”) received 100 mg/kg of pemetrexed, 2 mg/kg of cisplatin, and 330 mg/kg of PTS 100. In group 4, when administering in combination, pemetrexed, cisplatin, PTS100 are given at different days, for example, PTS is given at Monday and Thursday, and pemetrexed+cisplatin is given at Wednesday. See Table 4 for the experimental design of the corresponding treatments, dose, injection site, concentration, volume, number of subjects and dosing frequency. The dosage of pemetrexed, cisplatin, and PTS100 were selected such that these drug affects apoptosis, invasion, metastasis, angiogenesis, and the growth signal mechanisms in […] implanted in mice. The growth of the tumors was assessed every seven days by measuring their largest and smallest diameters, and calculated their volume according to the following formula: […] [table]

ZEB1 = experiment: Quantitative PCR of ZEB1 mRNA in M5 tumors; type: in vivo, BALB/c nude mice; settings: FIG. 10
mTOR = experiment: Western blot of mTOR in M5 tumors; type: in vivo, BALB/c nude mice; settings: FIG. 7A

Cc1ccc(S(N)(=O)=O)cc1 [PTS, p-Toluenesulfonamide]
tumor volume / tumor burden (H520 cells [1]): slight decrease | tumor growth inhibition (H520 cells [2]; PTS100 330 mg/kg IT B.I.W., gemcitabine 160 mg/kg and cisplatin 3 mg/kg IP QW): 39.2% | tumor volume / tumor burden (H520 cells [2]; compared to control, FIG. 12A): slight decrease | Ki67 expression (Ki67): suppressed | Inhibition (%) (tumor growth inhibition) (A549 cells; PTS100 330 mg/kg IT B.I.W., pemetrexed 100 mg/kg and cisplatin 2 mg/kg IP QW): 84.13% | tumor volume / tumor burden (A549 cells; compared to control, FIG. 14A): slight decrease | tumor weight (A549 cells; compared to the control, FIG. 14B): significant decrease | ZEB1 mRNA expression (ZEB1): downregulation | expression of mTOR (mTOR): downregulated

Source: patent US12409158B2, “Combination therapy for treating cancer” (GONGWIN BIOPHARM CO., LTD, priority 2022, dated 2025)
